# Assay results reported in the NIST ThermoML archive (doi:10.1021/je800984q).
# Numbers after ± are expanded uncertainties.
# Tests used:
# [1] = xn = mol fraction of the nth substance listed; details: 298.15 K, 101 kPa, Liquid; for viscosity: Capillary tube (Ostwald / Ubbelohde) method; for mass density: Vibrating tube method
# [2] = Liquid; for viscosity / mass density: 298.15 K, 101 kPa; for viscosity: Capillary tube (Ostwald / Ubbelohde) method; for mass density: Vibrating tube method
structure (smiles),measurement,setting,value
CCOC(=O)OCC [diethyl carbonate] + C1CC2C3CCC(C3)C2C1,viscosity,[1]; x1 = 1,0.764 ± 0.008 mPa·s
same,mass density,[1]; x1 = 1,969 ± 0.5 kg/m3
CCOC(=O)OCC [diethyl carbonate],viscosity,[2],0.764 ± 0.008 mPa·s
same,mass density,[2],969 ± 0.5 kg/m3
same,vapor or sublimation pressure,[2]; 343.77 K,13.8 ± 0.7 kPa
same,vapor or sublimation pressure,[2]; 351.67 K,19.3 ± 0.9 kPa
same,vapor or sublimation pressure,[2]; 355.63 K,22.7 ± 1 kPa
same,vapor or sublimation pressure,[2]; 358.29 K,26 ± 1.1 kPa
same,vapor or sublimation pressure,[2]; 363.84 K,31.3 ± 1.3 kPa
same,vapor or sublimation pressure,[2]; 366.98 K,35.2 ± 1.4 kPa
same,vapor or sublimation pressure,[2]; 369.75 K,39.1 ± 1.5 kPa
same,vapor or sublimation pressure,[2]; 372.28 K,42.8 ± 1.6 kPa
same,vapor or sublimation pressure,[2]; 374.61 K,46.5 ± 1.8 kPa
same,vapor or sublimation pressure,[2]; 377.05 K,50.5 ± 1.9 kPa
same,vapor or sublimation pressure,[2]; 379.59 K,55 ± 2 kPa
same,vapor or sublimation pressure,[2]; 381.49 K,58.8 ± 2.1 kPa
same,vapor or sublimation pressure,[2]; 383.37 K,63.1 ± 2.3 kPa
same,vapor or sublimation pressure,[2]; 383.57 K,63.5 ± 2.3 kPa
same,vapor or sublimation pressure,[2]; 386.18 K,68.5 ± 2.4 kPa
same,vapor or sublimation pressure,[2]; 387.61 K,72.8 ± 2.6 kPa
same,vapor or sublimation pressure,[2]; 390.35 K,78.5 ± 2.8 kPa
same,vapor or sublimation pressure,[2]; 392.39 K,84 ± 2.9 kPa
same,vapor or sublimation pressure,[2]; 393.93 K,88.2 ± 3.1 kPa
same,vapor or sublimation pressure,[2]; 395.72 K,93.4 ± 3.2 kPa
same,vapor or sublimation pressure,[2]; 398.28 K,101.5 ± 3.5 kPa
"C1CC2C3CCC(C3)C2C1 (stereo not given) [tricyclo[5.2.1.0(2,6)]decane]",viscosity,[2],2.739 ± 0.07 mPa·s
same,mass density,[2],931.4 ± 4.7 kg/m3
same,vapor or sublimation pressure,[2]; 393.98 K,15 ± 0.8 kPa
same,vapor or sublimation pressure,[2]; 396.02 K,16.6 ± 0.8 kPa
same,vapor or sublimation pressure,[2]; 401.42 K,20.6 ± 1 kPa
same,vapor or sublimation pressure,[2]; 413.88 K,30.3 ± 1.3 kPa
same,vapor or sublimation pressure,[2]; 418.34 K,34.8 ± 1.4 kPa
same,vapor or sublimation pressure,[2]; 426.86 K,44.9 ± 1.8 kPa
same,vapor or sublimation pressure,[2]; 431.22 K,50.7 ± 1.9 kPa
same,vapor or sublimation pressure,[2]; 434.56 K,55.8 ± 2.1 kPa
same,vapor or sublimation pressure,[2]; 436.68 K,59.2 ± 2.2 kPa
same,vapor or sublimation pressure,[2]; 439.31 K,63.2 ± 2.4 kPa
same,vapor or sublimation pressure,[2]; 441.13 K,66.6 ± 2.5 kPa
same,vapor or sublimation pressure,[2]; 442.7 K,69.5 ± 2.6 kPa
same,vapor or sublimation pressure,[2]; 442.81 K,69.8 ± 2.6 kPa
same,vapor or sublimation pressure,[2]; 444.37 K,72.9 ± 2.7 kPa
same,vapor or sublimation pressure,[2]; 445.73 K,75.1 ± 2.7 kPa
same,vapor or sublimation pressure,[2]; 446.13 K,75.9 ± 2.8 kPa
same,vapor or sublimation pressure,[2]; 450.08 K,83.9 ± 3 kPa
same,vapor or sublimation pressure,[2]; 457.66 K,101.1 ± 3.6 kPa
"C1CC2C3CCC(C3)C2C1 (stereo not given) [tricyclo[5.2.1.0(2,6)]decane] + CCOC(=O)OCC",viscosity,[1]; x2 = 0,2.739 ± 0.07 mPa·s
same,viscosity,[1]; x2 = 0.1141,2.14 ± 0.051 mPa·s
same,viscosity,[1]; x2 = 0.2235,1.757 ± 0.038 mPa·s
same,viscosity,[1]; x2 = 0.3303,1.496 ± 0.03 mPa·s
same,viscosity,[1]; x2 = 0.4355,1.292 ± 0.024 mPa·s
same,viscosity,[1]; x2 = 0.536,1.149 ± 0.019 mPa·s
same,viscosity,[1]; x2 = 0.6336,1.026 ± 0.016 mPa·s
same,viscosity,[1]; x2 = 0.7288,0.938 ± 0.013 mPa·s
same,viscosity,[1]; x2 = 0.8207,0.861 ± 0.011 mPa·s
same,viscosity,[1]; x2 = 0.9109,0.814 ± 0.01 mPa·s
same,mass density,[1]; x2 = 0,931.4 ± 4.7 kg/m3
same,mass density,[1]; x2 = 0.1141,933.1 ± 4 kg/m3
same,mass density,[1]; x2 = 0.2235,935.3 ± 3.3 kg/m3
same,mass density,[1]; x2 = 0.3303,938.1 ± 2.8 kg/m3
same,mass density,[1]; x2 = 0.4355,941.3 ± 2.3 kg/m3
same,mass density,[1]; x2 = 0.536,944.8 ± 1.9 kg/m3
same,mass density,[1]; x2 = 0.6336,948.8 ± 1.5 kg/m3
same,mass density,[1]; x2 = 0.7288,953.4 ± 1.2 kg/m3
same,mass density,[1]; x2 = 0.8207,958.2 ± 0.9 kg/m3
same,mass density,[1]; x2 = 0.9109,963.5 ± 0.7 kg/m3
